Results taken from ChEMBL document CHEMBL3400082, “Synthesis of 6-aryl-substituted sulfocoumarins and investigation of their carbonic anhydrase inhibitory action” (Bioorg Med Chem, 2015).

Columns and labels:
Carbonic anhydrase 9 = Carbonic anhydrase 9 (Homo sapiens, UniProt Q16790); assay: Inhibition of human tumor-associated carbonic anhydrase 9 by stopped-flow CO2 hydrase assay
Carbonic anhydrase 2 = Carbonic anhydrase 2 (Homo sapiens, UniProt P00918); assay: Inhibition of human cytosolic carbonic anhydrase 2 by stopped-flow CO2 hydrase assay
Carbonic anhydrase 1 = Carbonic anhydrase 1 (Homo sapiens, UniProt P00915); assay: Inhibition of human cytosolic carbonic anhydrase 1 by stopped-flow CO2 hydrase assay
Sequence of Carbonic anhydrase 1 (P00915 whole entry): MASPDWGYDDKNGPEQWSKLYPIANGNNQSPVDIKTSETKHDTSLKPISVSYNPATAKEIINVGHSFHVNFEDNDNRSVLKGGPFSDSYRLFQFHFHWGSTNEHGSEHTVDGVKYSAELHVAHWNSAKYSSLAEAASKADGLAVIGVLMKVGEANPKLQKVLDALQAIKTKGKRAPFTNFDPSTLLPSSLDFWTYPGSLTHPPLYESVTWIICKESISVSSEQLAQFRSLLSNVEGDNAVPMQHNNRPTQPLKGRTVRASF

Row | SMILES | Ki (Carbonic anhydrase 9) | Ki (Carbonic anhydrase 2) | Ki (Carbonic anhydrase 1)
1 | Cc1ccccc1-c1ccc2c(c1)C=CS(=O)(=O)O2 | 0.0708 µM | > 10 µM | > 10 µM
2 | CC(C)Oc1ccc(-c2ccc3c(c2)C=CS(=O)(=O)O3)cc1 | 0.0098 µM | > 10 µM | > 10 µM
3 | O=S1(=O)C=Cc2cc(-c3ccc(OC(F)(F)F)cc3)ccc2O1 | 0.0762 µM | > 10 µM | > 10 µM
4 | O=S1(=O)C=Cc2cc(-c3cccc(C(F)(F)F)c3)ccc2O1 | 0.0098 µM | > 10 µM | > 10 µM
5 | COC(=O)c1cccc(-c2ccc3c(c2)C=CS(=O)(=O)O3)c1 | 0.009 µM | > 10 µM | > 10 µM
6 | O=S1(=O)C=Cc2cc(-c3ccc(Cl)c(Cl)c3)ccc2O1 | 0.0094 µM | > 10 µM | > 10 µM

The remaining lines, values ahead:

Row | Ki (Carbonic anhydrase 9) | Ki (Carbonic anhydrase 2) | Ki (Carbonic anhydrase 1) | SMILES
7 | 0.0599 µM | > 10 µM | > 10 µM | O=S1(=O)C=Cc2cc(-c3ccccc3)ccc2O1
8 | 0.0774 µM | > 10 µM | > 10 µM | Cc1ccc(-c2ccc3c(c2)C=CS(=O)(=O)O3)cc1
9 | 0.0953 µM | > 10 µM | > 10 µM | O=S1(=O)C=Cc2cc(-c3ccc(F)cc3)ccc2O1
10 | 0.0103 µM | > 10 µM | > 10 µM | O=S1(=O)C=Cc2cc(-c3cccc(F)c3)ccc2O1
11 | 0.0709 µM | > 10 µM | > 10 µM | COc1ccc(-c2ccc3c(c2)C=CS(=O)(=O)O3)cc1
12 | 0.0091 µM | > 10 µM | > 10 µM | CC(C)(C)c1ccc(-c2ccc3c(c2)C=CS(=O)(=O)O3)cc1
13 | 0.0297 µM | > 10 µM | > 10 µM | O=S1(=O)C=Cc2cc(-c3ccc(C(F)(F)F)cc3)ccc2O1
